Measured values from BigSolDB 2.1.

O=C(O)/C=C/c1cccc(O)c1
solubility (mole fraction)
Conditions	in ethanol	in ethyl acetate	in isobutanol	in isopropanol	in methanol	in methyl acetate	in n-butanol	in n-propanol	in n-propyl acetate
293.15 K	0.0594	0.0177	0.0317	0.0611	0.0516	0.0189	0.0474	0.0493	0.0155
298.15 K	0.0632	0.0201	0.0351	0.0662	0.0557	0.0212	0.0513	0.0533	0.0184
303.15 K	0.0687	0.0228	0.0397	0.0724	0.0611	0.0239	0.0566	0.0585	0.0212
308.15 K	0.0742	0.0256	0.0449	0.0794	0.0669	0.0276	0.0617	0.064	0.0236
313.15 K	0.0802	0.0294	0.0502	0.0859	0.0731	0.0315	0.0677	0.0701	0.0269
318.15 K	0.087	0.0329	0.0561	0.0933	0.0801	0.0358	0.0741	0.0766	0.0302
323.15 K	0.0949	0.0377	0.0628	0.101	0.0887	0.0402	0.0806	0.0842	0.035
328.15 K	0.103	0.0438	0.0706	0.109	0.0995	0.0458	0.0887	0.093	0.041
333.15 K	0.114	0.0489	0.0802	0.12	0.113	–	0.0989	0.104	0.0471
